Measurements taken from US7541466B2, “Tetrahydroisoquinoline derivatives for treating protein trafficking diseases” (Genzyme Corporation, priority 2003, dated 2009).

Biological target: T1, ΔF508 CFTR (Homo sapiens, UniProt P13569, DEL508-508)
T1 construct: expressed in transfected cells
Experiment: MQAE chloride transport assay in C127 cells expressing ΔF508 CFTR
Assay type: cell-based, murine
Details: for Emax: C127, plateau level in activity at high compound concentration, read-out: % of Maximal Response; for EC50: chloride transport activity, MQAE; for % Maximal Response @ 1.25 μM: limiting concentration 1.25 μM
Method: C127 cells are a murine mammary epithelial cell line obtained from ATCC (#CRL 1616, American Type Culture Collection, Manassas, Va.). C127 cells were transfected with a bovine papilloma virus-based eukaryotic expression vector containing genes for ΔF508 CFTR and neomycin resistance whose expression was driven by a metallothionein promoter. Clonal cell populations resistant to G418 and positive for staining with anti-CFTR antibody were identified.
C127 cells expressing ΔF508 CFTR were grown in microtiter plates in DMEM (Dulbecco's Modified Eagle Medium, Hyclone, Logan, Utah) supplemented with fetal bovine serum, antibiotics, and glutamine in a 37° C., 5% CO2 atmosphere. Once confluent, the cells were loaded overnight with the disclosed compounds and a fluorescent dye sensitive to chloride ion concentration, N-(ethoxycarbonylmethyl)-6-methoxy quinolinium bromide (MQAE) (Verkman, Am. J. Physiol. 259 C375-C388 (1990)).
The following day, cells were washed with chloride-containing buffer to remove extracellular MQAE and to quench intracellular MQAE fluorescence. Chloride buffer was flicked out and replaced with nitrate buffer with added forskolin and IBMX (isobutylmethylxanthine) to stimulate CFTR activity. […] Buffers were adjusted to pH 7.4 and contained: 10 mM HEPES (N-2-Hydroxyethylpiperazine-N′-2-ethanesulfonic acid), 2.4 mM K2HPO4, 0.6 mM KH2PO4, 1.0 mM CaSO4, 1.0 mM MgSO4, 150 mM NaCl or NaNO3, and 25 mM glucose.
The increase in MQAE fluorescence as a function of time was followed using 360 nm excitation and 460 nm emission wavelengths. Fluorescence increased as chloride flowed out of cells through CFTR and the rate of increase in fluorescence over the first five minutes was taken as a measure of chloride transport activity.
Cells were treated with mixtures of up to 100 compounds per well for ca. 18 hours before the assay for chloride transport activity. […] Dose-response curves were generated and compounds were ranked based on their EC50 values and maximal responses (the plateau level in activity at high compound concentration, as a percentage of the low temperature response).

[1] = as a percentage of the low temperature response
[2] = percentage of low temperature response, C127 ΔF508 CFTR cells

T1 sequence (P13569 with tags, fused parts or gaps DEL508-508): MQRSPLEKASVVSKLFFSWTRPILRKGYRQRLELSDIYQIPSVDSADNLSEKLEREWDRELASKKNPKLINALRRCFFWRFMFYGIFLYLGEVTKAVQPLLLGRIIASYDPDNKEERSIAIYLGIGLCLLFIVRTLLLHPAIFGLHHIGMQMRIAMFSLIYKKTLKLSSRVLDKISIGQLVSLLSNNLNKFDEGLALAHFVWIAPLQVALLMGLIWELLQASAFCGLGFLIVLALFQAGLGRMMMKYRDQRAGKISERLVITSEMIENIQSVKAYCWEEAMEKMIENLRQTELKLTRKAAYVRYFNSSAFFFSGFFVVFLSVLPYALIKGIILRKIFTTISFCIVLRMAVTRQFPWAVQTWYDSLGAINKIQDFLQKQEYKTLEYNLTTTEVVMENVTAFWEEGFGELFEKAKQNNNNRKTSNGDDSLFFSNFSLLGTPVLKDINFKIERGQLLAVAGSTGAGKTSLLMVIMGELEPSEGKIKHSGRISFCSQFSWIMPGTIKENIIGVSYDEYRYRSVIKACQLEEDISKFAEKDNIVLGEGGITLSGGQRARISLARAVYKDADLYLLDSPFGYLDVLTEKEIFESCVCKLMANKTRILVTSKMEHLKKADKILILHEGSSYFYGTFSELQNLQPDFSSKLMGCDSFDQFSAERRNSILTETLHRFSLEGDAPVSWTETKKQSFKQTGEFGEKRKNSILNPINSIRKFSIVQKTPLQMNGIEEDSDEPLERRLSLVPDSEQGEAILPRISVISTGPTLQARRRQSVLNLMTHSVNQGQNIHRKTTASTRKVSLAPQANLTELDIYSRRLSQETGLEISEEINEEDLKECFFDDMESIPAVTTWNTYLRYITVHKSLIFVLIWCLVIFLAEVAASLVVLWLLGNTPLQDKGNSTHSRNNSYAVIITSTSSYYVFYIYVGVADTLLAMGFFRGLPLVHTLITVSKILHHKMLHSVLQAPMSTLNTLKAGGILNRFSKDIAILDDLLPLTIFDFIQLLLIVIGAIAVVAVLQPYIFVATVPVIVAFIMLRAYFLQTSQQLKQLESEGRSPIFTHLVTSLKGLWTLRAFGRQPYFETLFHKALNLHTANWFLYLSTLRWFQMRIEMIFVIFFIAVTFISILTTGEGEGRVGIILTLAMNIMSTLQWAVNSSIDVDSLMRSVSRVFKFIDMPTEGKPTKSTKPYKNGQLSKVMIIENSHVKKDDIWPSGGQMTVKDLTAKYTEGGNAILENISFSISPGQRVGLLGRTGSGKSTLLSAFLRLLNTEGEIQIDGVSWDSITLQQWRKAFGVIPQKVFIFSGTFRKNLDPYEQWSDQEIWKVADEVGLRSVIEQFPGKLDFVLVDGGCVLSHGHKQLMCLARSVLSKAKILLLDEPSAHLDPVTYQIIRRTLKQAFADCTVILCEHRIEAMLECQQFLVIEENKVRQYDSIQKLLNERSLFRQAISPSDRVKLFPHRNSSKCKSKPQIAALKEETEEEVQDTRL

Emax [1] | EC50 (C127 ΔF508 CFTR cells) | Compound | also measured
79% | – | O=C(Nc1ccc(Cl)cc1)C1Cc2ccccc2CN1C(=O)c1cccc(Oc2ccccc2)c1 (racemic) [Compound 1] | –
77% | 0.25 µM | Cc1ccc(Oc2cccc(C(=O)N3Cc4ccccc4CC3C(=O)Nc3ccc(Cl)cc3)c2)cc1 (racemic) [Compound 7] | –
95% | 0.28 µM | CC(C)(C)c1ccc(Oc2cccc(C(=O)N3Cc4ccccc4CC3C(=O)Nc3ccc(Cl)cc3)c2)cc1 (racemic) [Compound 8] | –
52% | 0.26 µM | COc1ccccc1Oc1cccc(C(=O)N2Cc3ccccc3CC2C(=O)Nc2ccc(Cl)cc2)c1 (racemic) [Compound 11, (±)-2-[3-(2-Methoxyphenoxy)benzoyl]-1,2,3,4-tetrahydroisoquinoline-3-carboxylic acid(4-chlorophenyl)amide] | –
65% | 0.067 µM | COc1ccc(C(=O)N2Cc3ccccc3CC2C(=O)Nc2ccc(Cl)cc2)cc1Oc1ccccc1 (racemic) [Compound 17] | –
28% | 1.24 µM | O=C(Nc1ccc(Cl)cc1)C1Cc2ccc(O)cc2CN1C(=O)c1cccc(Oc2ccccc2)c1 (racemic) [Compound 20] | –
28% | 0.17 µM | CCCCCc1ccc(NC(=O)C2Cc3c(C)cccc3CN2C(=O)c2cccc(Oc3ccccc3)c2)cc1 (racemic) [Compound 21] | –
– | – | O=C(Nc1ccc(Cl)cc1)C1Cc2ccccc2CN1C(=O)c1ccc2ccccc2c1 (racemic) [Compound 22, (±)-2-(Naphthalene-2-carbonyl)-1,2,3,4-tetrahydroisoquinoline-3-carboxylic acid(4-chlorophenyl)amide] | % Maximal Response @ 1.25 μM [2]: 36%
70% | 0.27 µM | Cc1ccc(NC(=O)C2Cc3ccccc3CN2C(=O)c2cccc(Oc3ccccc3)c2)cc1 (racemic) [Compound 67] | Percent of low-temperature response at 1.25 µM (C127, limiting concentration 1.25 μM, percentage of low temperature response, C127 ΔF508 CFTR cells, read-out: % Maximal Response @ 1.25 μM): 85%
– | – | O=C(NCCc1ccc(Br)cc1)C1Cc2ccccc2CN1C(=O)c1cccc(Oc2ccccc2)c1 (racemic) [Compound 73, (±)-2-(3-Phenoxybenzoyl)-1,2,3,4-tetrahydroisoquinoline-3-carboxylic acid[2-(4-bromophenyl)-ethyl]amide] | % Maximal Response @ 1.25 μM [2]: 34%
82% | 0.27 µM | CCCc1ccc(NC(=O)C2Cc3ccccc3CN2C(=O)c2cccc(Oc3ccccc3)c2)cc1 (racemic) [Compound 75] | –
36% | 0.4 µM | O=C(Nc1ccc(C2CCCCC2)cc1)C1Cc2ccccc2CN1C(=O)c1cccc(Oc2ccccc2)c1 (racemic) [Compound 76] | –
30% | 0.35 µM | CCC(C)c1ccc(NC(=O)C2Cc3ccccc3CN2C(=O)c2cccc(Oc3ccccc3)c2)cc1 (racemic) [Compound 77] | –
40% | 0.25 µM | CC(C)c1ccc(NC(=O)C2Cc3ccccc3CN2C(=O)c2cccc(Oc3ccccc3)c2)cc1 (racemic) [Compound 78] | –
73% | 0.23 µM | CCc1ccc(NC(=O)C2Cc3ccccc3CN2C(=O)c2cccc(Oc3ccccc3)c2)cc1 (racemic) [Compound 79] | –
79% | 0.28 µM | CCOc1cccc(NC(=O)C2Cc3ccccc3CN2C(=O)c2cccc(Oc3ccccc3)c2)c1 (racemic) [Compound 83] | –
74% | 0.096 µM | CC(=O)N(C)c1ccc(NC(=O)C2Cc3ccccc3CN2C(=O)c2cccc(Oc3ccccc3)c2)cc1 (racemic) [Compound 85] | –
74% | – | CCCCCc1ccc(NC(=O)C2Cc3ccccc3CN2C(=O)c2cccc(Oc3ccccc3)c2)cc1 (racemic) [Compound 87] | –
66% | 0.059 µM | CCCCCCN(C(C)=O)c1ccc(NC(=O)C2Cc3ccccc3CN2C(=O)c2cccc(Oc3ccccc3)c2)cc1 (racemic) [Compound 90, (±)-2-(3-Phenoxybenzoyl)-1,2,3,4-tetrahydroisoquinoline-3-carboxylic acid[4-(acetylhexylamino)phenyl]amide] | –
60% | – | O=C(Nc1ccc(I)cc1)C1Cc2ccccc2CN1C(=O)c1cccc(Oc2ccccc2)c1 (racemic) [Compound 93] | –
80% | 0.15 µM | CCCC(=O)N(C)c1ccc(NC(=O)C2Cc3ccccc3CN2C(=O)c2cccc(Oc3ccccc3)c2)cc1 (racemic) [Compound 95, (±)-2-(3-Phenoxybenzoyl)-1,2,3,4-tetrahydroisoquinoline-3-carboxylic acid[4-(butyrylmethylamino)-phenyl]amide] | –
55% | – | O=C(Nc1cccnc1)C1Cc2ccccc2CN1C(=O)c1cccc(Oc2ccccc2)c1 (racemic) [Compound 98] | –

Emax [1] | EC50 (C127 ΔF508 CFTR cells) | Compound | also measured
70% | 0.27 µM | COc1ccc(NC(=O)C2Cc3ccccc3CN2C(=O)c2cccc(Oc3ccccc3)c2)cn1 (racemic) [Compound 99] | –
59% | 0.43 µM | O=C(Nc1nccs1)C1Cc2ccccc2CN1C(=O)c1cccc(Oc2ccccc2)c1 (racemic) [Compound 100] | –
70% | – | CCCCN(C(C)=O)c1ccc(NC(=O)C2Cc3ccccc3CN2C(=O)c2cccc(Oc3ccccc3)c2)cc1 (racemic) [Compound 102] | –
60% | 0.1 µM | COc1ccc(C(=O)N2Cc3ccccc3CC2C(=O)Nc2ccc(Cl)nc2)cc1Oc1ccccc1 (racemic) [Compound 108] | –
91% | 0.069 µM | CCCCCc1ccc(NC(=O)C2Cc3ccccc3CN2C(=O)c2cccc(OCc3ccccc3)c2)cc1 (racemic) [Compound 113] | –
59% | 0.087 µM | CC1c2ccccc2CN(C(=O)c2cccc(Oc3ccccc3)c2)C1C(=O)Nc1ccc(Cl)cc1 (single isomer, unassigned) [Compound 18] | –
– | 0.15 µM | CC1c2ccccc2CN(C(=O)c2cccc(Oc3ccccc3)c2)C1C(=O)Nc1ccc(Cl)cc1 (single isomer, unassigned) [Compound 19] | % of Maximal Response (plateau level in activity at high compound concentration, as a percentage of the low temperature response): 69%
85% | 0.22 µM | O=C(Nc1ccc(Cl)cc1)C1Cc2ccccc2CN1C(=O)c1cccc(OCc2ccccc2)c1 (single isomer, unassigned; (+)) [Compound 14, (+)-2-(3-Benzyloxybenzoyl)-1,2,3,4-tetrahydroisoquinoline-3-carboxylic acid(4-chlorophenyl)amide] | –
54% | 0.066 µM | CC(=O)N(C)c1ccc(NC(=O)[C@@H]2Cc3ccccc3CN2C(=O)c2cccc(Oc3ccccc3)c2)cc1 [Compound 86] | –
76% | – | CCCCCc1ccc(NC(=O)[C@@H]2Cc3ccccc3CN2C(=O)c2cccc(Oc3ccccc3)c2)cc1 [Compound 88] | –
70% | 0.029 µM | CCCCCCN(C(C)=O)c1ccc(NC(=O)[C@@H]2Cc3ccccc3CN2C(=O)c2cccc(Oc3ccccc3)c2)cc1 [Compound 91] | –
76% | – | CCCCN(C(C)=O)c1ccc(NC(=O)[C@@H]2Cc3ccccc3CN2C(=O)c2cccc(Oc3ccccc3)c2)cc1 [Compound 103] | –
54% | – | CCCCCc1ccc(NC(=O)[C@@H]2Cc3ccccc3CN2C(=O)c2cccc(Oc3ccccc3)c2)cn1 [Compound 107, (S)-2-(3-Phenoxybenzoyl)-1,2,3,4-tetrahydroisoquinoline-3-carboxylic acid(6-pentylpyridin-3-yl)amide] | –
87% | 0.096 µM | O=C(Nc1ccc(F)cc1)[C@@H]1Cc2ccccc2CN1C(=O)c1cc(OC2CCCCC2)ccn1 [Compound 109] | –
64% | 0.4 µM | COc1ccc(NC(=O)[C@@H]2Cc3ccccc3CN2C(=O)c2cc(OC3CCCCC3)ccn2)cn1 [Compound 110] | –
73% | 0.15 µM | CCOc1cccc(NC(=O)[C@@H]2Cc3ccccc3CN2C(=O)c2cc(OC3CCCCC3)ccn2)c1 [Compound 111] | –
71% | 0.039 µM | CCCCCc1ccc(NC(=O)[C@@H]2Cc3ccccc3CN2C(=O)c2cccc(Oc3ccc(OC)cc3)c2)cc1 [Compound 112] | –
72% | 0.059 µM | CCCCCc1ccc(NC(=O)[C@@H]2Cc3ccccc3CN2C(=O)c2cccc(OCc3ccccc3)c2)cc1 [Compound 114] | –
74% | – | CCCCCc1ccc(NC(=O)[C@@H]2Cc3ccccc3CN2C(=O)c2ccc(OC)c(Oc3ccccc3)c2)cc1 [Compound 115] | –
88% | 0.018 µM | CCCCCc1ccc(NC(=O)[C@@H]2Cc3ccccc3CN2C(=O)c2ccc(OC)c(OCc3ccccc3)c2)cc1 [Compound 116] | –
79% | – | CCCCCc1ccc(NC(=O)[C@@H]2Cc3ccccc3CN2C(=O)c2cc(Oc3ccccc3)ccn2)cc1 [Compound 118] | –
